Reference: patent US7291621B2, “Substituted biaryl amides C5a receptor modulators” (Neurogen Corporation, priority 2002, dated 2007)

Biological target: T1, C5a receptor (Homo sapiens, UniProt P21730)
T1 construct: endogenous in cells; host or cells: U937 cells differentiated with 1 mM dibutyryl cAMP
T1 sequence (P21730 1-350): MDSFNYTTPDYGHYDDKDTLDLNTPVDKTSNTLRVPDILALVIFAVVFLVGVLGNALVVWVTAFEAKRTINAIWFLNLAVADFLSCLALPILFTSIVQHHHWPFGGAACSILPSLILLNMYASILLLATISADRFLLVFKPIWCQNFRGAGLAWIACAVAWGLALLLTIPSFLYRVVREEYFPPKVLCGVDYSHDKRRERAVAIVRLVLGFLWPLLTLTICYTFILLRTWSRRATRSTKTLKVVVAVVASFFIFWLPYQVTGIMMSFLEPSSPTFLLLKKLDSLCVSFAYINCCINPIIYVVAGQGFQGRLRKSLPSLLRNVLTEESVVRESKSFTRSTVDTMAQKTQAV
Assay: standard assay of C5a receptor mediated calcium mobilization
Type: cell-based
Settings: Table I; asterisk = tested in C5a receptor mediated calcium mobilization assay; read-out: Ca2+ Mob.
How it was run: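 U937 cells differentiated 48 hrs with 1 mM dibutyryl cAMP, loaded with Fluo-3 (10 μg/mL) and read by FLIPR fluorescence (ex 480/em 530). For antagonism, cells preincubated 1 h with 1 μM compound before 0.3 nM human recombinant C5a; activity scored as fold decrease in response versus C5a alone.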

SMILES | Ki [nM]
O=C(c1cc(Cl)ccc1-c1ccccc1)N(CCc1ccccc1)C1Cc2ccccc2C1 [compound 141, 4-chloro-N-(indan-2-yl)-N-(2-phenylethyl)-1,1′-biphenyl-2-carboxamide] | < 1000
Cc1cc(CN(Cc2ccccc2)C(=O)c2cc(Cl)ccc2-c2ccccc2)cc(C)c1O [compound 142, N-benzyl-4-chloro-N-(4-hydroxy-3,5-dimethylbenzyl)-1,1′-biphenyl-2-carboxamide] | < 1000
O=C(c1cc(Cl)ccc1-c1ccccc1)N(Cc1ccccc1)Cc1ccc2c(c1)OCC2 [compound 144, N-benzyl-4-chloro-N-(2,3-dihydro-1-benzofuran-6-ylmethyl)-1,1′-biphenyl-2-carboxamide] | < 1000
COc1cccc(CN(CCc2ccccc2)C(=O)c2cc(Cl)ccc2-c2ccccc2)c1 [compound 145, 4-chloro-N-(3-methoxybenzyl)-N-(2-phenylethyl)-1,1′-biphenyl-2-carboxamide] | < 1000
O=C(c1cc(Cl)ccc1-c1ccccc1)N(Cc1ccccc1)Cc1cccc2ccccc12 [compound 146, N-benzyl-4-chloro-N-(1-naphthylmethyl)-1,1′-biphenyl-2-carboxamide] | < 1000
Cc1ccc(-c2ccccc2C(=O)N(Cc2ccccc2)Cc2cc(C)c(O)c(C)c2)s1 [compound 147, N-benzyl-N-(4-hydroxy-3,5-dimethylbenzyl)-2-(5-methylthien-2-yl)benzamide] | < 1000
Cc1ccc(-c2ccccc2C(=O)N(Cc2ccccc2)Cc2ccc(OC(F)F)cc2)s1 [compound 148, N-benzyl-N-[4-(difluoromethoxy)benzyl]-2-(5-methylthien-2-yl)benzamide] | < 1000
Cc1ccc(-c2ccccc2C(=O)N(Cc2ccccc2)Cc2ccc(O)cc2Cl)s1 [compound 149, N-benzyl-N-(2-chloro-4-hydroxybenzyl)-2-(5-methylthien-2-yl)benzamide] | < 1000
Cc1cc(CN(Cc2ccccc2)C(=O)c2ccccc2-c2ccccc2)cc(C)c1O [compound 150, N-benzyl-N-(4-hydroxy-3,5-dimethylbenzyl)-1,1′-biphenyl-2-carboxamide] | < 1000
O=C(c1ccccc1-c1ccccc1)N(Cc1ccccc1)Cc1ccc(OC(F)F)cc1 [compound 151, N-benzyl-N-[4-(difluoromethoxy)benzyl]-1,1′-biphenyl-2-carboxamide] | < 1000

Same assay, conditions: Table III; asterisk = tested in C5a receptor mediated calcium mobilization assay; read-out: Ca2+ Mob.

SMILES | Ki [nM]
COc1ccc2ccccc2c1C(=O)N(Cc1ccccc1)Cc1cc(C)c(O)c(C)c1 [compound 217, N-benzyl-N-(4-hydroxy-3,5-dimethylbenzyl)-2-methoxy-1-naphthamide] | < 1000
COc1ccc2ccccc2c1C(=O)N(CCc1ccccc1)C1Cc2ccccc2C1 [compound 220, 2-Methoxy-naphthalene-1-carboxylic acid indan-2-yl-phenethyl-amide] | < 1000
COc1ccc2ccccc2c1C(=O)N(Cc1ccc(C)cc1)C1Cc2ccccc2C1 [compound 223, 2-Methoxy-naphtlalene-1-carboxylic acid (4-methyl-benzyl)-indan-2-yl-amide] | < 1000
COc1ccc2ccccc2c1C(=O)N(Cc1ccccc1C)C1Cc2ccccc2C1 [compound 224, 2-Methoxy-naphthalene-1-carboxylic acid (2-methyl-benzyl)-indan-2-yl-amide] | < 1000
COc1ccc2ccccc2c1C(=O)N(Cc1ccc2c(c1)OCO2)C1Cc2ccccc2C1 [compound 228, 2-Methoxy-naphthalene-1-carboxylic acidbenzo[1,3]dioxol-5-ylmethyl-indan-2-yl-amide] | < 1000
Cc1cccc(CN(C(=O)c2c(C)ccc3ccccc23)C2Cc3ccccc3C2)c1 [compound 230, 2-Methyl-naphthalene-1-carboxylic acid (3-methyl-benzyl)-indan-2-yl-amide] | < 1000
Cc1ccc2ccccc2c1C(=O)N(CCc1ccccc1)C1Cc2ccccc2C1 [compound 235, 2-Methyl-naphthalene-1-carboxylic acid indan-2-yl-phenethyl-amide] | < 1000
O=C(c1c(O)ccc2ccccc12)N(Cc1ccccc1F)C1Cc2ccccc2C1 [compound 237, 2-Hydroxy-naphthalene-1-carboxylic acid (2-fluoro-benzyl)-indan-2-yl-amide] | < 1000
Cc1ccc(CN(C(=O)c2c(O)ccc3ccccc23)C2Cc3ccccc3C2)cc1 [compound 238, 2-Hydroxy-naphthalene-1-carboxylic acid (4-methyl-benzyl)-indan-2-yl-amide] | < 1000
O=C(c1c(-c2ccccc2)ccc2ccccc12)N(Cc1ccccc1F)C1Cc2ccccc2C1 [compound 239, 2-Phenyl-naphthalene-1-carboxylic acid (2-fluoro-benzyl)-indan-2-yl-amide] | < 1000
Cc1ccc(CN(C(=O)c2c(-c3ccccc3)ccc3ccccc23)C2Cc3ccccc3C2)cc1 [compound 240, 2-Phenyl-naphthalene 1-carboxylic acid (4-methyl-benzyl)-indan-2-yl-amide] | < 1000
